# Results published in US20230293407A1, “Compositions Comprising (Bio)-Alkanediols with Antimicrobials for Product Protection” (Symrise AG, priority 2020, published 2023).
# Legend:
# Assay in all cases: preservation efficacy test (PET), European Pharmacopoeia 5.1.3
# Type in all cases: cell-based
# Staphylococcus aureus = settings: for count at 7 days / count at 14 days / count at 28 days / count at 2 days: SA, use concentration in label
# Escherichia coli = settings: for count at 2 days / count at 7 days / count at 14 days / count at 28 days: EC, use concentration in label
# Aspergillus brasiliensis = settings: for AB germ count, 28 days / count at 28 days: 28 days after inoculation; for count at 2 days / count at 7 days / count at 14 days / count at 28 days: AB, use concentration in label; for count at 2 days: 2 days after inoculation; for count at 7 days: 7 days after inoculation
# Candida albicans = settings: for CA germ count, 7 days / CA germ count, 14 days / CA germ count, 28 days: substance at given % in test formulation; for count at 2 days / count at 7 days / count at 14 days / count at 28 days: CA, use concentration in label; for count at 2 days: 2 days after inoculation
# Pseudomonas aeruginosa = settings: for count at 2 days / count at 7 days / count at 14 days / count at 28 days: PA, use concentration in label
# [1] = 2 days after inoculation, substance at given % in test formulation
# [2] = 7 days after inoculation, substance at given % in test formulation
# [3] = 14 days after inoculation, substance at given % in test formulation
# [4] = 28 days after inoculation, substance at given % in test formulation
# [5] = 7 days after inoculation, o/w emulsion (Table 53)
# [6] = 7 days after inoculation, substance at given % in test formulation, listed as 0.1% 4-Hydroxyacetophenone
# [7] = 14 days after inoculation, o/w emulsion (Table 53)
# [8] = 28 days after inoculation, o/w emulsion (Table 53)
# [9] = 2 days after inoculation, o/w emulsion (Table 53)
structure (smiles),measurement,setting,value
O=C(OCc1ccccc1)c1ccccc1O [0.2% Benzyl Salicylate],"SA germ count, 2 days",Staphylococcus aureus; [1],670.000
same,"SA germ count, 7 days",Staphylococcus aureus; [2],9.200
same,"SA germ count, 14 days",Staphylococcus aureus; [3],1
same,"SA germ count, 28 days",Staphylococcus aureus; [4],1
same,"EC germ count, 2 days",Escherichia coli; [1],250.000
same,"EC germ count, 7 days",Escherichia coli; [2],13.000
same,"EC germ count, 14 days",Escherichia coli; [3],640
same,"EC germ count, 28 days",Escherichia coli; [4],430
same,"AB germ count, 14 days",Aspergillus brasiliensis; [3],750.000
same,"AB germ count, 28 days",Aspergillus brasiliensis; substance at given % in test formulation,630.000
same,"CA germ count, 7 days",Candida albicans; 7 days after inoculation,600.000
same,"CA germ count, 14 days",Candida albicans; 14 days after inoculation,370.000
same,"CA germ count, 28 days",Candida albicans; 28 days after inoculation,390.000
same,"PA germ count, 2 days",Pseudomonas aeruginosa; [1],1.200
same,"PA germ count, 7 days",Pseudomonas aeruginosa; [2],790
same,"PA germ count, 14 days",Pseudomonas aeruginosa; [3],160.000
same,"PA germ count, 28 days",Pseudomonas aeruginosa; [4],44.000
Cc1ccc(C(C)C)c(O)c1 [0.1% Thymol],count at 7 days,Staphylococcus aureus; 7 days after inoculation,23.000
same,count at 14 days,Staphylococcus aureus; 14 days after inoculation,120
same,count at 28 days,Staphylococcus aureus; 28 days after inoculation,1
same,count at 2 days,Escherichia coli; 2 days after inoculation,720.000
same,count at 7 days,Escherichia coli; 7 days after inoculation,200.000
same,count at 14 days,Escherichia coli; 14 days after inoculation,200
same,count at 28 days,Escherichia coli; 28 days after inoculation,27
same,count at 2 days,Aspergillus brasiliensis,580.000
same,count at 7 days,Aspergillus brasiliensis,520.000
same,count at 14 days,Aspergillus brasiliensis; 14 days after inoculation,290.000
same,count at 28 days,Aspergillus brasiliensis,650.000
same,count at 2 days,Candida albicans,69.000
same,count at 7 days,Candida albicans; 7 days after inoculation,640.000
same,count at 14 days,Candida albicans; 14 days after inoculation,180
same,count at 28 days,Candida albicans; 28 days after inoculation,1.400
same,count at 2 days,Pseudomonas aeruginosa; 2 days after inoculation,1
same,count at 7 days,Pseudomonas aeruginosa; 7 days after inoculation,1
same,count at 14 days,Pseudomonas aeruginosa; 14 days after inoculation,1
same,count at 28 days,Pseudomonas aeruginosa; 28 days after inoculation,1
CCCCCCCC(=O)NO [0.4% caprylhydroxamic acid],count at 2 days,Staphylococcus aureus; 2 days after inoculation,1
same,count at 7 days,Staphylococcus aureus; 7 days after inoculation,1
same,count at 14 days,Staphylococcus aureus; 14 days after inoculation,1
same,count at 28 days,Staphylococcus aureus; 28 days after inoculation,1
same,count at 2 days,Escherichia coli; 2 days after inoculation,6.900
same,count at 7 days,Escherichia coli; 7 days after inoculation,1
same,count at 14 days,Escherichia coli; 14 days after inoculation,1
same,count at 28 days,Escherichia coli; 28 days after inoculation,1
same,count at 2 days,Aspergillus brasiliensis,810.000
same,count at 7 days,Aspergillus brasiliensis,68.000
same,count at 14 days,Aspergillus brasiliensis; 14 days after inoculation,180
same,count at 28 days,Aspergillus brasiliensis,1
same,count at 2 days,Candida albicans,210.000
same,count at 7 days,Candida albicans; 7 days after inoculation,1
same,count at 14 days,Candida albicans; 14 days after inoculation,1
same,count at 28 days,Candida albicans; 28 days after inoculation,1
same,count at 2 days,Pseudomonas aeruginosa; 2 days after inoculation,1
same,count at 7 days,Pseudomonas aeruginosa; 7 days after inoculation,1
same,count at 14 days,Pseudomonas aeruginosa; 14 days after inoculation,1
same,count at 28 days,Pseudomonas aeruginosa; 28 days after inoculation,1
CC(=O)CCC(=O)O [0.4% Levulinic Acid],count at 2 days,Staphylococcus aureus; 2 days after inoculation,45.000
same,count at 7 days,Staphylococcus aureus; 7 days after inoculation,1
same,count at 14 days,Staphylococcus aureus; 14 days after inoculation,1
same,count at 28 days,Staphylococcus aureus; 28 days after inoculation,1
same,count at 2 days,Escherichia coli; 2 days after inoculation,310
same,count at 7 days,Escherichia coli; 7 days after inoculation,1
same,count at 14 days,Escherichia coli; 14 days after inoculation,1
same,count at 28 days,Escherichia coli; 28 days after inoculation,1
same,count at 2 days,Aspergillus brasiliensis,710.000
same,count at 7 days,Aspergillus brasiliensis,440.000
same,count at 14 days,Aspergillus brasiliensis; 14 days after inoculation,390.000
same,count at 28 days,Aspergillus brasiliensis,120.000
same,count at 2 days,Candida albicans,240.000
same,count at 7 days,Candida albicans; 7 days after inoculation,220.000
same,count at 14 days,Candida albicans; 14 days after inoculation,240.000
same,count at 28 days,Candida albicans; 28 days after inoculation,38.000
same,count at 2 days,Pseudomonas aeruginosa; 2 days after inoculation,1
same,count at 7 days,Pseudomonas aeruginosa; 7 days after inoculation,1
same,count at 14 days,Pseudomonas aeruginosa; 14 days after inoculation,1
same,count at 28 days,Pseudomonas aeruginosa; 28 days after inoculation,1
"CC(=O)c1ccc(O)cc1 [4-Hydroxyacetophenone, reference compound]","germ count SA, 7 days",Staphylococcus aureus; [5],24.000
same,"SA germ count, 7 days",Staphylococcus aureus; [6],78.000
same,"germ count SA, 14 days",Staphylococcus aureus; [7],1
same,"germ count SA, 28 days",Staphylococcus aureus; [8],1
same,"number of microorganisms, 7 days","Staphylococcus aureus; PET, Staphylococcus aureus (SA), 7 days after inoculation",24.000
same,"number of microorganisms, 14 days","Staphylococcus aureus; PET, Staphylococcus aureus (SA), 14 days after inoculation",1
same,"number of microorganisms, 28 days","Staphylococcus aureus; PET, Staphylococcus aureus (SA), 28 days after inoculation",1
same,"germ count EC, 2 days",Escherichia coli; [9],110.000
same,"EC germ count, 2 days","Escherichia coli; 2 days after inoculation, substance at given % in test formulation, listed as 0.1% 4-Hydroxyacetophenone",110.000
same,"germ count EC, 7 days",Escherichia coli; [5],290
same,"EC germ count, 7 days",Escherichia coli; [6],36
same,"germ count EC, 14 days",Escherichia coli; [7],27
same,"EC germ count, 14 days","Escherichia coli; 14 days after inoculation, substance at given % in test formulation, listed as 0.1% 4-Hydroxyacetophenone",1
same,"germ count EC, 28 days",Escherichia coli; [8],1
same,"number of microorganisms, 2 days","Escherichia coli; PET, Escherichia coli (EC), 2 days after inoculation",110.000
same,"number of microorganisms, 7 days","Escherichia coli; PET, Escherichia coli (EC), 7 days after inoculation",290
same,"number of microorganisms, 14 days","Escherichia coli; PET, Escherichia coli (EC), 14 days after inoculation",27
same,"number of microorganisms, 28 days","Escherichia coli; PET, Escherichia coli (EC), 28 days after inoculation",1
same,"AB germ count, 28 days","Aspergillus brasiliensis; substance at given % in test formulation, listed as 0.1% 4-Hydroxyacetophenone",910.000
same,"germ count CA, 7 days",Candida albicans; [5],170.000
same,"CA germ count, 7 days","Candida albicans; 7 days after inoculation, listed as 0.1% 4-Hydroxyacetophenone",310.000
same,"germ count CA, 14 days",Candida albicans; [7],130.000
same,"CA germ count, 14 days","Candida albicans; 14 days after inoculation, listed as 0.1% 4-Hydroxyacetophenone",190.000
same,"germ count CA, 28 days",Candida albicans; [8],55.000
same,"CA germ count, 28 days","Candida albicans; 28 days after inoculation, listed as 0.1% 4-Hydroxyacetophenone",100.000
same,"number of microorganisms, 7 days","Candida albicans; PET, Candida albicans (CA), 7 days after inoculation",170.000
same,"number of microorganisms, 14 days","Candida albicans; PET, Candida albicans (CA), 14 days after inoculation",130.000
same,"number of microorganisms, 28 days","Candida albicans; PET, Candida albicans (CA), 28 days after inoculation",55.000
same,"germ count PA, 2 days",Pseudomonas aeruginosa; [9],1
same,"germ count PA, 7 days",Pseudomonas aeruginosa; [5],1
same,"germ count PA, 14 days",Pseudomonas aeruginosa; [7],1
same,"germ count PA, 28 days",Pseudomonas aeruginosa; [8],1
same,"number of microorganisms, 2 days","Pseudomonas aeruginosa; PET, Pseudomonas aeruginosa (PA), 2 days after inoculation",1
same,"number of microorganisms, 7 days","Pseudomonas aeruginosa; PET, Pseudomonas aeruginosa (PA), 7 days after inoculation",1
same,"number of microorganisms, 14 days","Pseudomonas aeruginosa; PET, Pseudomonas aeruginosa (PA), 14 days after inoculation",1
same,"number of microorganisms, 28 days","Pseudomonas aeruginosa; PET, Pseudomonas aeruginosa (PA), 28 days after inoculation",1
